Experimental data from ChEMBL document CHEMBL1127134, “Synthesis and antibacterial activity of (1R,5R,6R)-2-tert-butyl-6-(1-hydroxyethyl)oxapenem-3-carboxylic acid” (1993).
≈ marks a conversion by molar mass, not a printed value.

Columns and labels:
Bacteroides fragilis [1] = experiment: Minimum inhibitory concentration required for the antibacterial activity against Bacillus fragilis 4891/91 Kr; type: functional
Bacteroides fragilis [2] = experiment: Minimum inhibitory concentration required for the antibacterial activity against Bacillus fragilis DSM 2151; type: functional
Bacteroides fragilis [3] = experiment: Minimum inhibitory concentration required for the antibacterial activity against Bacillus fragilis ES 25; type: functional
Bacteroides fragilis [4] = experiment: Minimum inhibitory concentration required for the antibacterial activity against Bacillus fragilis GA I - 0558 Japan; type: functional
Bacteroides fragilis [5] = experiment: Minimum inhibitory concentration required for the antibacterial activity against Bacillus fragilis Kr 1 TV; type: functional
Bacteroides fragilis [6] = experiment: Minimum inhibitory concentration required for the antibacterial activity against Bacillus fragilis Kr II; type: functional
Bacteroides fragilis [7] = experiment: Minimum inhibitory concentration required for the antibacterial activity against Bacillus fragilis L 1168 Italien; type: functional
[8] = system: Prevotella melaninogenica; experiment: Minimum inhibitory concentration required for the antibacterial activity against Bacillus melaninogenicus Heidelberg; type: functional
[9] = system: Prevotella melaninogenica; experiment: Minimum inhibitory concentration required for the antibacterial activity against Bacillus melaninogenicus Kr; type: functional
Bacteroides ovatus = experiment: Minimum inhibitory concentration required for the antibacterial activity against Bacillus ovatus Heidelberg; type: functional, bacillus ovatu
[10] = system: Parabacteroides distasonis; experiment: Minimum inhibitory concentration required for the antibacterial activity against Bacillus distasonis Heidelberg; type: functional
[11] = system: Parabacteroides distasonis; experiment: Minimum inhibitory concentration required for the antibacterial activity against Bacillus distasonis Kr; type: functional
Bacteroides fragilis [12] = experiment: Minimum inhibitory concentration required for the antibacterial activity against Bacillus fragilis 010848; type: functional
Bacteroides fragilis [13] = experiment: Minimum inhibitory concentration required for the antibacterial activity against Bacillus fragilis 06688; type: functional
Bacteroides fragilis [14] = experiment: Minimum inhibitory concentration required for the antibacterial activity against Bacillus fragilis 1560 I/82; type: functional
Bacteroides fragilis [15] = experiment: Minimum inhibitory concentration required for the antibacterial activity against Bacillus fragilis 2034/35 Kr 43; type: functional
Bacteroides fragilis [16] = experiment: Minimum inhibitory concentration required for the antibacterial activity against Bacillus fragilis 4661 Kr; type: functional
[17] = system: Bacteroides thetaiotaomicron; experiment: Minimum inhibitory concentration required for the antibacterial activity against Bacillus thetaiotaomicron 235 Munchen; type: functional
[18] = system: Bacteroides thetaiotaomicron; experiment: Minimum inhibitory concentration required for the antibacterial activity against Bacillus thetaiotaomicron DSM 2079; type: functional
Phocaeicola vulgatus = experiment: Minimum inhibitory concentration required for the antibacterial activity against Bacillus valgatus Kr III; type: functional
Clostridium perfringens [19] = experiment: Minimum inhibitory concentration required for the antibacterial activity against Clostridium perfringens 1024027; type: functional
Clostridium perfringens [20] = experiment: Minimum inhibitory concentration required for the antibacterial activity against Clostridium perfringens 24071; type: functional
Clostridium perfringens [21] = experiment: Minimum inhibitory concentration required for the antibacterial activity against Clostridium perfringens 24072; type: functional
Clostridium perfringens [22] = experiment: Minimum inhibitory concentration required for the antibacterial activity against Clostridium perfringens DSM 756; type: functional
Clostridium butyricum = experiment: Minimum inhibitory concentration required for the antibacterial activity against Clostridium butyricum; type: functional
Thomasclavelia ramosa = experiment: Minimum inhibitory concentration required for the antibacterial activity against Clostridium ramosum DSM 1402; type: functional
Clostridium sporogenes = experiment: Minimum inhibitory concentration required for the antibacterial activity against Clostridium sporogenes; type: functional
Fusobacterium nucleatum = experiment: Minimum inhibitory concentration required for the antibacterial activity against Fusobacterium nucleatum DSM 20482; type: functional
[23] = system: Peptostreptococcus anaerobius; experiment: Minimum inhibitory concentration required for the antibacterial activity against Peptostrept. anaer. Kr I; type: functional
[24] = system: Peptostreptococcus anaerobius; experiment: Minimum inhibitory concentration required for the antibacterial activity against Peptostrept. anaer. Kr II; type: functional
[25] = system: Peptostreptococcus anaerobius; experiment: Minimum inhibitory concentration required for the antibacterial activity against Peptostrept. anaer. 222 I/82; type: functional
[26] = system: Peptostreptococcus anaerobius; experiment: Minimum inhibitory concentration required for the antibacterial activity against Peptostrept. anaer. DSM 20357; type: functional
[27] = system: Peptoniphilus asaccharolyticus; experiment: Minimum inhibitory concentration required for the antibacterial activity against Peptococcus asacchar. DSM 20463; type: functional
Anaerococcus prevotii = experiment: Minimum inhibitory concentration required for the antibacterial activity against Peptococcus prevotii DSM 20548; type: functional
[28] = system: Fusobacterium necrophorum; experiment: Minimum inhibitory concentration required for the antibacterial activity against Sphaerophorus necrophorus Kr; type: functional
Clostridium septicum = experiment: Minimum inhibitory concentration required for the antibacterial activity against Clostridium septicum; type: functional
Staphylococcus aureus [29] = experiment: Minimum inhibitory concentration required for the antibacterial activity against Staphylococcus aureus 13N Munchen; type: functional
Staphylococcus aureus [30] = experiment: Minimum inhibitory concentration required for the antibacterial activity against Staphylococcus aureus 1756; type: functional; conditions: Staphylococcus aureus; read-out: MIC
Staphylococcus aureus [31] = experiment: Minimum inhibitory concentration required for the antibacterial activity against Staphylococcus aureus 21b Belgium; type: functional
Staphylococcus aureus [32] = experiment: Minimum inhibitory concentration required for the antibacterial activity against Staphylococcus aureus 25085; type: functional
Staphylococcus aureus [33] = experiment: Minimum inhibitory concentration required for the antibacterial activity against Staphylococcus aureus 25463; type: functional
Staphylococcus aureus [34] = experiment: Minimum inhibitory concentration required for the antibacterial activity against Staphylococcus aureus 25464; type: functional
Staphylococcus aureus [35] = experiment: Minimum inhibitory concentration required for the antibacterial activity against Staphylococcus aureus 25470; type: functional
Staphylococcus aureus [36] = experiment: Minimum inhibitory concentration required for the antibacterial activity against Staphylococcus aureus 25697; type: functional
Staphylococcus aureus [37] = experiment: Minimum inhibitory concentration required for the antibacterial activity against Staphylococcus aureus 25768; type: functional
Staphylococcus aureus [38] = experiment: Minimum inhibitory concentration required for the antibacterial activity against Staphylococcus aureus 41h Belgium; type: functional
Staphylococcus aureus [39] = experiment: Minimum inhibitory concentration required for the antibacterial activity against Staphylococcus aureus 4978 Israel; type: functional
Staphylococcus aureus [40] = experiment: Minimum inhibitory concentration required for the antibacterial activity against Staphylococcus aureus 77 Innsbruck; type: functional
Staphylococcus aureus [41] = experiment: Minimum inhibitory concentration required for the antibacterial activity against Staphylococcus aureus 79B Innsbruck; type: functional
Staphylococcus aureus [42] = experiment: Minimum inhibitory concentration required for the antibacterial activity against Staphylococcus aureus 86 Innsbruck; type: functional
Staphylococcus aureus [43] = experiment: Minimum inhibitory concentration required for the antibacterial activity against Staphylococcus aureus 90 Innsbruck; type: functional
Staphylococcus aureus [44] = experiment: Minimum inhibitory concentration required for the antibacterial activity against Staphylococcus aureus 17N Munchen; type: functional
Staphylococcus aureus [45] = experiment: Minimum inhibitory concentration required for the antibacterial activity against Staphylococcus aureus 48N Munchen; type: functional

CCn1cc(C(=O)O)c(=O)c2cc(F)c(N3CCNCC3)cc21 [NORFLOXACIN]
MIC (Bacteroides fragilis [1]): > 16 µg/mL | MIC (Bacteroides fragilis [2]): > 16 µg/mL | MIC (Bacteroides fragilis [3]): > 16 µg/mL | MIC (Bacteroides fragilis [4]): > 16 µg/mL | MIC (Bacteroides fragilis [5]): > 16 µg/mL | MIC (Bacteroides fragilis [6]): > 16 µg/mL | MIC (Bacteroides fragilis [7]): > 16 µg/mL | MIC [8]: > 16 µg/mL | MIC [9]: 16 µg/mL (≈ 50.1 µM) | MIC (Bacteroides ovatus): > 16 µg/mL | MIC [10]: > 16 µg/mL | MIC [11]: > 16 µg/mL | MIC (Bacteroides fragilis [12]): > 16 µg/mL | MIC (Bacteroides fragilis [13]): > 16 µg/mL | MIC (Bacteroides fragilis [14]): > 16 µg/mL | MIC (Bacteroides fragilis [15]): > 16 µg/mL | MIC (Bacteroides fragilis [16]): > 16 µg/mL | MIC [17]: > 16 µg/mL | MIC [18]: > 16 µg/mL | MIC (Phocaeicola vulgatus): > 16 µg/mL | MIC (Clostridium perfringens [19]): 2 µg/mL (≈ 6.26 µM) | MIC (Clostridium perfringens [20]): 4 µg/mL (≈ 12.5 µM) | MIC (Clostridium perfringens [21]): 4 µg/mL (≈ 12.5 µM) | MIC (Clostridium perfringens [22]): > 16 µg/mL | MIC (Clostridium butyricum): 16 µg/mL (≈ 50.1 µM) | MIC (Thomasclavelia ramosa): > 16 µg/mL | MIC (Clostridium sporogenes): 16 µg/mL (≈ 50.1 µM) | MIC (Fusobacterium nucleatum): 16 µg/mL (≈ 50.1 µM) | MIC [23]: > 16 µg/mL | MIC [24]: 2 µg/mL (≈ 6.26 µM) | MIC [25]: > 16 µg/mL | MIC [26]: > 16 µg/mL | MIC [27]: 4 µg/mL (≈ 12.5 µM) | MIC (Anaerococcus prevotii): > 16 µg/mL | MIC [28]: 2 µg/mL (≈ 6.26 µM) | MIC (Clostridium septicum): 16 µg/mL (≈ 50.1 µM)

CC1(C)S[C@@H]2[C@H](NC(=O)[C@H](N)c3ccccc3)C(=O)N2[C@H]1C(=O)O [AMPICILLIN]
MIC (Staphylococcus aureus [29]): 50 µg/mL (≈ 143 µM) | MIC (Staphylococcus aureus [30]): 50 µg/mL (≈ 143 µM) | MIC (Staphylococcus aureus [31]): > 100 µg/mL | MIC (Staphylococcus aureus [32]): 50 µg/mL (≈ 143 µM) | MIC (Staphylococcus aureus [33]): 50 µg/mL (≈ 143 µM) | MIC (Staphylococcus aureus [34]): 50 µg/mL (≈ 143 µM) | MIC (Staphylococcus aureus [35]): 50 µg/mL (≈ 143 µM) | MIC (Staphylococcus aureus [36]): 25 µg/mL (≈ 71.5 µM) | MIC (Staphylococcus aureus [37]): 50 µg/mL (≈ 143 µM) | MIC (Staphylococcus aureus [38]): 50 µg/mL (≈ 143 µM) | MIC (Staphylococcus aureus [39]): 1.56 µg/mL (≈ 4.46 µM) | MIC (Staphylococcus aureus [40]): 50 µg/mL (≈ 143 µM) | MIC (Staphylococcus aureus [41]): 50 µg/mL (≈ 143 µM) | MIC (Staphylococcus aureus [42]): 50 µg/mL (≈ 143 µM) | MIC (Staphylococcus aureus [43]): 50 µg/mL (≈ 143 µM) | MIC (Staphylococcus aureus [44]): 25 µg/mL (≈ 71.5 µM) | MIC (Staphylococcus aureus [45]): 50 µg/mL (≈ 143 µM)
